From ChEMBL document CHEMBL1201862, “PubChem BioAssay data set” (2004)
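Grown in 96-well plates, cells were treated for 48 hours with each compound at five concentrations. Insufficient inhibition: endpoint recorded as highest concentration tested. GI50: concentration for 50% inhibition of growth.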 Activity calls are given as the source filed them. Cut-off read from the data, not from the text of the source: active = GI50 up to about 1.1 µM and inactive = higher.

Tests used:
Assay in all cases: NCI-60 cell line screen, 48 h
[1] = test system: 786-0
[2] = test system: A549
[3] = test system: CCRF-CEM
[4] = test system: COLO 205
[5] = test system: HCT-116
[6] = test system: HOP-62
[7] = test system: HT-29
[8] = test system: IGROV-1
[9] = test system: NCI/ADR-RES
[10] = test system: OVCAR-3
[11] = test system: OVCAR-8
[12] = test system: SF-539
[13] = test system: SK-MEL-28
[14] = test system: SK-MEL-5
[15] = test system: SNB-19
[16] = test system: TK-10
[17] = test system: U-251
[18] = test system: UACC-62
[19] = test system: A498
[20] = test system: MDA-N

Structure (SMILES)	GI50 [1]	GI50 [2]	GI50 [3]	GI50 [4]	GI50 [5]	GI50 [6]	GI50 [7]	GI50 [8]	GI50 [9]	GI50 [10]	GI50 [11]	GI50 [12]	GI50 [13]	GI50 [14]	GI50 [15]	GI50 [16]	GI50 [17]	GI50 [18]	GI50 [19]	GI50 [20]
C=C1C[C@H](O)[C@H]2C(C[Se]c3ccccc3)C(=O)O[C@@H]2[C@H]2[C@H](C)C(O)C[C@@H]12 (stereo not given in full)	33 µM (inactive)	44.2 µM (inactive)	24.8 µM (inactive)	50.7 µM (inactive)	23.1 µM (inactive)	> 100 µM (inactive)	46.1 µM (inactive)	25.3 µM (inactive)	20.2 µM (inactive)	24.4 µM (inactive)	41.8 µM (inactive)	55.3 µM (inactive)	76.2 µM (inactive)	33.6 µM (inactive)	> 100 µM (inactive)	56.9 µM (inactive)	16.4 µM (inactive)	19.1 µM (inactive)		
C=C[C@]1(C)CC(O)C2C(=C)C(=O)OC2[C@H]1C(=C)C=O (stereo not given in full)	1.91 µM (inactive)	18.4 µM (inactive)	0.925 µM (active)	7.23 µM (inactive)	1.64 µM (inactive)	15.5 µM (inactive)	2.33 µM (inactive)	8.87 µM (inactive)		2.67 µM (inactive)	2.16 µM (inactive)	3.29 µM (inactive)	1.3 µM (inactive)	2.33 µM (inactive)	18.2 µM (inactive)	3.94 µM (inactive)	9.04 µM (inactive)	1.79 µM (inactive)	4.42 µM (inactive)	3.92 µM (inactive)
Clc1c(C(Cl)(Cl)Cl)nsc1N1CCCCC1	17.9 µM (inactive)	33.9 µM (inactive)	16.5 µM (inactive)	16.5 µM (inactive)	24.3 µM (inactive)	23 µM (inactive)	16 µM (inactive)	36 µM (inactive)		20.8 µM (inactive)	27.4 µM (inactive)	25.3 µM (inactive)	33 µM (inactive)	16 µM (inactive)	20.7 µM (inactive)	31.6 µM (inactive)	23.5 µM (inactive)	22 µM (inactive)	20 µM (inactive)	31 µM (inactive)
CCC1(O)C(=O)OCc2c1cc1n(c2=O)Cc2cc3ccc(CO)cc3nc2-1 (stereo not given)	1.99 µM (inactive)	6.04 µM (inactive)	0.186 µM (active)	14.2 µM (inactive)	4.85 µM (inactive)	0.566 µM (active)	9.35 µM (inactive)	12.2 µM (inactive)		4.55 µM (inactive)	2.62 µM (inactive)	1.42 µM (inactive)	> 78.5 µM (inactive)	3.08 µM (inactive)	1.93 µM (inactive)	> 95.3 µM (inactive)	0.705 µM (active)	0.757 µM (active)	7.82 µM (inactive)	
CCOC(=O)C(C)(C)Oc1ccc2c(-c3ccc(Cl)cc3)cc(=O)oc2c1	> 100 µM (inactive)	> 100 µM (inactive)	> 100 µM (inactive)	> 100 µM (inactive)	> 100 µM (inactive)	> 100 µM (inactive)	> 100 µM (inactive)	> 100 µM (inactive)		> 100 µM (inactive)	> 100 µM (inactive)	> 100 µM (inactive)	> 100 µM (inactive)	74.8 µM (inactive)	> 100 µM (inactive)	> 100 µM (inactive)	> 100 µM (inactive)	> 100 µM (inactive)	> 100 µM (inactive)	
O=C1CC2(CCN(CC3COc4ccccc4O3)CC2)C(=O)N1N1CCCCCC1 (stereo not given)	> 100 µM (inactive)	> 100 µM (inactive)	29.4 µM (inactive)	35.9 µM (inactive)	52.6 µM (inactive)	> 100 µM (inactive)	21.4 µM (inactive)	> 100 µM (inactive)	52.7 µM (inactive)	> 100 µM (inactive)	64.6 µM (inactive)	> 100 µM (inactive)	> 100 µM (inactive)	22.7 µM (inactive)	> 100 µM (inactive)	> 100 µM (inactive)	> 100 µM (inactive)	> 100 µM (inactive)	> 100 µM (inactive)	
O=C(Cn1c2ccc(Br)cc2c2nc3ccccc3nc21)NNC(=O)NC1CCCCC1	44.3 µM (inactive)	18.3 µM (inactive)	26.7 µM (inactive)	86.9 µM (inactive)	57.3 µM (inactive)	27.7 µM (inactive)				63.5 µM (inactive)	35.9 µM (inactive)	> 100 µM (inactive)	45.2 µM (inactive)	> 100 µM (inactive)	89.1 µM (inactive)	42.8 µM (inactive)	30.1 µM (inactive)	> 100 µM (inactive)	> 100 µM (inactive)	44 µM (inactive)
COc1cc2c(c(OC)c1)[C@H](C)N(Cc1ccccc1)C(C)C2 (stereo not given in full)	36.1 µM (inactive)	43.5 µM (inactive)	36.6 µM (inactive)	29.5 µM (inactive)	14.7 µM (inactive)	> 100 µM (inactive)	9.57 µM (inactive)	29.4 µM (inactive)			74.1 µM (inactive)	16.6 µM (inactive)	30.5 µM (inactive)	25.4 µM (inactive)	> 100 µM (inactive)	37.2 µM (inactive)		52.5 µM (inactive)	> 100 µM (inactive)	> 10 µM (inactive)
CC12C(=O)N(CCN)C(=O)C1C1c3ccccc3C2c2ccccc21 (stereo not given)	> 100 µM (inactive)	> 100 µM (inactive)	> 100 µM (inactive)	> 100 µM (inactive)	> 100 µM (inactive)	> 100 µM (inactive)	58.3 µM (inactive)	> 100 µM (inactive)		> 100 µM (inactive)	> 100 µM (inactive)	> 100 µM (inactive)	> 100 µM (inactive)	> 100 µM (inactive)	> 100 µM (inactive)	> 100 µM (inactive)	> 100 µM (inactive)	> 100 µM (inactive)	> 100 µM (inactive)	
CC(=O)CC(=O)NC=O	> 100 µM (inactive)	> 100 µM (inactive)	> 100 µM (inactive)	> 100 µM (inactive)	> 100 µM (inactive)	> 100 µM (inactive)	> 100 µM (inactive)	> 100 µM (inactive)		> 100 µM (inactive)	> 100 µM (inactive)	> 100 µM (inactive)	> 100 µM (inactive)	> 100 µM (inactive)	> 100 µM (inactive)	> 100 µM (inactive)	> 100 µM (inactive)	> 100 µM (inactive)	> 100 µM (inactive)	
O=C(NCCCCNCCCNC(=O)C(F)(F)F)C(F)(F)F	> 100 µM (inactive)	> 100 µM (inactive)	> 100 µM (inactive)	> 100 µM (inactive)	> 100 µM (inactive)	> 100 µM (inactive)	> 100 µM (inactive)	> 100 µM (inactive)	> 100 µM (inactive)	> 100 µM (inactive)	> 100 µM (inactive)	> 100 µM (inactive)	> 100 µM (inactive)	> 100 µM (inactive)	> 100 µM (inactive)	> 100 µM (inactive)	> 100 µM (inactive)	> 100 µM (inactive)	> 100 µM (inactive)	
